Results published in patent US20080009418A1, “Selective Inhibitors” (Alchemia LTD., priority 2004, published 2008).

Legend:
Human κ-Opioid (KOP) = biological target: T1, Human κ-Opioid (KOP) (Homo sapiens, UniProt P41145); experiment: Radioligand binding, human κ-opioid (KOP) membranes, filtration, [3H]-Diprenorphine; conditions: compound at 10 μM; for A2 radioligand binding, percentage inhibition / A2: inhibition of radioligand binding: [3H]-Diprenorphine
T1 construct: purchased Perkin Elmer Biosignal
T1 sequence (P41145 whole entry): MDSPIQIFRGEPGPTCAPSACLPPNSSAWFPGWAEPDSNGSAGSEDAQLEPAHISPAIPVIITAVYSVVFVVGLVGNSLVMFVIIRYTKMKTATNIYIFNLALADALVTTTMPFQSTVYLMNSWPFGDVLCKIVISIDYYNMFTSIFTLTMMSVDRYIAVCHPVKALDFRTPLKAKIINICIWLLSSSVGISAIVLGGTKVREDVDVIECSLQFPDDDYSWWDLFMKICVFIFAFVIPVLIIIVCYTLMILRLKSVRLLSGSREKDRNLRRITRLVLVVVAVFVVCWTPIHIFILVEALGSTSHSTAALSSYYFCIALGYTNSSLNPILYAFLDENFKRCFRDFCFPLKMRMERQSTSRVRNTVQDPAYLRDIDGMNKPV
Summary of the method: (§1)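 Percent inhibition of radioligand binding measured on recombinant human membranes: NK1 with [125I]-Substance P, KOP with [3H]-Diprenorphine. Incubation 1 h at room temperature, then harvest onto 0.3% PEI-soaked filters, cold Tris-HCl pH 7.4 washes and scintillation counting; non-specific binding from reference ligand wells.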

Human melanocortin (MC5) = biological target: T2, Human melanocortin (MC5) (Homo sapiens, UniProt P33032); experiment: Radioligand binding, human melanocortin MC5 membranes, FlashPlate, [125I]-NDP-αMSH; conditions: compound at 10 μM; for A5 radioligand binding, percentage inhibition / A5: inhibition of radioligand binding: [125I]-NDP-αMSH
T2 construct: purchased Perkin Elmer Biosignal
T2 sequence (P33032 whole entry): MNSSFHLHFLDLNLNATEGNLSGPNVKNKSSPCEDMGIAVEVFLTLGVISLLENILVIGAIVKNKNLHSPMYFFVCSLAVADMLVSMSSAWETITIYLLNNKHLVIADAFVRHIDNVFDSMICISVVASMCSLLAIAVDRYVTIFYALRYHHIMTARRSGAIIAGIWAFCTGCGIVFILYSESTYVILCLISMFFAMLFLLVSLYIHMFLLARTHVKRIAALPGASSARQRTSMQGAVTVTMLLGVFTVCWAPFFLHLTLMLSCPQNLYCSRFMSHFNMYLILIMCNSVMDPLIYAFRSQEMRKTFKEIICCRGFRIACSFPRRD
Summary of the method: (§2)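 Cloned human receptor membranes were coated onto FlashPlate wells and incubated with radioligand and compound (added from a 0.5 mM DMSO daughter plate) for 1 hour at room temperature in the dark. Scintillation counting gave percent inhibition, with DMSO defining total and reference ligand defining non-specific binding.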

[1] = biological target: T3, Human neuropeptide Y (NPY-Y1) (Homo sapiens, UniProt P25929); experiment: Radioligand binding, human neuropeptide Y NPY-Y1 membranes, FlashPlate, [125I]-PYY; conditions: compound at 10 μM; for A9 radioligand binding, percentage inhibition / A9: inhibition of radioligand binding: [125I]-PYY
T3 construct: purchased Perkin Elmer Biosignal
T3 sequence (P25929 1-384): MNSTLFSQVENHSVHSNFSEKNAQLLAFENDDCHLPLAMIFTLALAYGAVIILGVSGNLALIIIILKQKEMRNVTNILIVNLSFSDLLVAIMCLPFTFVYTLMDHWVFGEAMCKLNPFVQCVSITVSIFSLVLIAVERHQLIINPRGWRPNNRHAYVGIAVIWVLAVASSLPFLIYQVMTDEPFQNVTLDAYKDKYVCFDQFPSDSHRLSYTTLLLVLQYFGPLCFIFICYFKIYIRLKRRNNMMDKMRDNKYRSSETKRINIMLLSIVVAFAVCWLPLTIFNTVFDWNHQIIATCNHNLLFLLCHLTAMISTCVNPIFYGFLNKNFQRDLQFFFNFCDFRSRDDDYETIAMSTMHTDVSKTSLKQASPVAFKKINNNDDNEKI
Summary of the method: as §2

Mouse urotensin (mUR2) = biological target: T4, Mouse urotensin (mUR2) (Mus musculus, UniProt Q8VIH9); experiment: Radioligand binding, mouse urotensin mUR2 membranes, FlashPlate, [125I]-Urotensin II; conditions: compound at 10 μM; for A11 radioligand binding, percentage inhibition / A11: inhibition of radioligand binding: [125I]-Urotensin II
T4 construct: purchased Perkin Elmer Biosignal
T4 sequence (Q8VIH9 1-385): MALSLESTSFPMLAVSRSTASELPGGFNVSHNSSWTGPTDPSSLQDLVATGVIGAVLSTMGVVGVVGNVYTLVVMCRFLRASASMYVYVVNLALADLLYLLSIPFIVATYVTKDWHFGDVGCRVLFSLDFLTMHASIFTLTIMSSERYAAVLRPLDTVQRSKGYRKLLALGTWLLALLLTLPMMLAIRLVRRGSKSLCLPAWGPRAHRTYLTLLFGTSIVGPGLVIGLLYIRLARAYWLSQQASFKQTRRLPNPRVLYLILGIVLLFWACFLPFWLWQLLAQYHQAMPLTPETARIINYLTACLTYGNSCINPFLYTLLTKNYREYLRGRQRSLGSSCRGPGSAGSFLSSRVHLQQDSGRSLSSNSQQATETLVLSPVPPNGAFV
Summary of the method: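 Cloned mouse urotensin (mUR2) receptor membranes from Perkin Elmer Biosignal were immobilized in FlashPlate microplates using a proprietary coating. Each well got 19.5 μl buffer, then 0.5 μl of DMSO, reference ligand, or compound. Adding 5 μl of [125I]-Urotensin II, diluted to 5× final concentration in binding buffer, started binding. Plates were sealed with TopSeal-A and incubated 1 hour at room temperature in the dark. Wells were counted for 30 seconds each on a TopCount after a 60-second delay, and percentage inhibition was calculated.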

Human opioid (ORL1) = biological target: T5, Human opioid (ORL1) (Homo sapiens, UniProt P41146); experiment: Radioligand binding, human opioid ORL1 membranes, FlashPlate, [125I]-Nociceptin; conditions: compound at 10 μM; for A10 radioligand binding, percentage inhibition / A10: inhibition of radioligand binding: [125I]-Nociceptin
T5 construct: purchased Perkin Elmer Biosignal
T5 sequence (P41146 whole entry): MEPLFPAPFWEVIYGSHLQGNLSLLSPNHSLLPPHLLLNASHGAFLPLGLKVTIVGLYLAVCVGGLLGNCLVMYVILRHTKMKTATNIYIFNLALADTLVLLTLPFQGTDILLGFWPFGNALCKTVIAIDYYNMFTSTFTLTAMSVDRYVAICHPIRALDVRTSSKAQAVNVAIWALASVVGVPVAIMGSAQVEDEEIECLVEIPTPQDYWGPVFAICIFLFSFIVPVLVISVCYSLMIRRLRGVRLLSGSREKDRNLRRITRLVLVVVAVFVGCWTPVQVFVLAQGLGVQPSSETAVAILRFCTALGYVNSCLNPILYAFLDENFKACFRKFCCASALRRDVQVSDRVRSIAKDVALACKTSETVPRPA
Summary of the method: as §2

Human Melanocortin (MC3) = biological target: T6, Human Melanocortin (MC3) (Homo sapiens, UniProt P41968); experiment: Radioligand binding, human melanocortin MC3 membranes, FlashPlate, [125I]-NDP-αMSH; conditions: compound at 10 μM; for A3 radioligand binding, percentage inhibition / A3: inhibition of radioligand binding: [125I]-NDP-αMSH
T6 construct: purchased Perkin Elmer Biosignal
T6 sequence (P41968 whole entry): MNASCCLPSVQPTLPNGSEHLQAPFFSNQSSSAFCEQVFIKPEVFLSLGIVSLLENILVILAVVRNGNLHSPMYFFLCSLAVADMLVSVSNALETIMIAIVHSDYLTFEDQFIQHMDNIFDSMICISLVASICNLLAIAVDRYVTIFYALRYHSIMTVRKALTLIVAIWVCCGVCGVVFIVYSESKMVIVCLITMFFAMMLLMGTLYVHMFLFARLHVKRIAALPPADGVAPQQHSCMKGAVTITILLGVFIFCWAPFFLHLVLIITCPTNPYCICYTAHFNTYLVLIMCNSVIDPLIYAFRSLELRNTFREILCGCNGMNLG
Summary of the method: as §2

Human μ-opioid (MOP) = biological target: T7, Human μ-opioid (MOP) (Homo sapiens, UniProt P35372); experiment: Radioligand binding, human μ-opioid (MOP) membranes, FlashPlate, [3H]-Naloxone; conditions: compound at 10 μM; for A7 radioligand binding, percentage inhibition / A7: inhibition of radioligand binding: [3H]-Naloxone
T7 construct: purchased Perkin Elmer Biosignal
T7 sequence (P35372 whole entry): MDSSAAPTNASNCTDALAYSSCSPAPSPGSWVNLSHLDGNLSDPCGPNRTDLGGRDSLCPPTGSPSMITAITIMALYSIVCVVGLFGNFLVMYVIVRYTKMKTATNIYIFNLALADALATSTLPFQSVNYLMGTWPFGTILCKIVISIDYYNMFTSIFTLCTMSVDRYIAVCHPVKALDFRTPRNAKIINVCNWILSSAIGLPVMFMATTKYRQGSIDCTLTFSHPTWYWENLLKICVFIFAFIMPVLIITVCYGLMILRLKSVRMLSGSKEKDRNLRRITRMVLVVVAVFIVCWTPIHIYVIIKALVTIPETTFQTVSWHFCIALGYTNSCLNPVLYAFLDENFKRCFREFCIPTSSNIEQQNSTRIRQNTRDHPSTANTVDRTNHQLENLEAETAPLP
Summary of the method: as §2

Human Melanocortin (MC4) = biological target: T8, Human Melanocortin (MC4) (Homo sapiens, UniProt P32245); experiment: Radioligand binding, human melanocortin MC4 membranes, FlashPlate, [125I]-NDP-αMSH; conditions: compound at 10 μM; for A4 radioligand binding, percentage inhibition / A4: inhibition of radioligand binding: [125I]-NDP-αMSH
T8 construct: purchased Perkin Elmer Biosignal
T8 sequence (P32245 whole entry): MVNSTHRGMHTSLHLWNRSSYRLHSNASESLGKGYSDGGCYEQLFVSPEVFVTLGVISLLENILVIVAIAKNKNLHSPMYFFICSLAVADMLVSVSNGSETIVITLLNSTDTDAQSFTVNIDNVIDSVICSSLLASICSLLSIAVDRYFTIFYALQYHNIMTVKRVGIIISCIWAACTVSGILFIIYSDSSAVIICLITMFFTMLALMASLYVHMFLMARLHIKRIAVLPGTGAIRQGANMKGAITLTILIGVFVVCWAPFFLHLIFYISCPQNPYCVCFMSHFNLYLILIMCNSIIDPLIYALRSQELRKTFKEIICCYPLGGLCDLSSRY
Summary of the method: as §2

[2] = biological target: T9, Human melanin-concentrating hormone (MCH1) (Homo sapiens, UniProt Q99705); experiment: Radioligand binding, human melanin-concentrating hormone MCH1 membranes, FlashPlate, [125I]-S36057; conditions: compound at 10 μM; for A6 radioligand binding, percentage inhibition: [125I]-S36057
T9 construct: purchased Perkin Elmer Biosignal
T9 sequence (Q99705 whole entry): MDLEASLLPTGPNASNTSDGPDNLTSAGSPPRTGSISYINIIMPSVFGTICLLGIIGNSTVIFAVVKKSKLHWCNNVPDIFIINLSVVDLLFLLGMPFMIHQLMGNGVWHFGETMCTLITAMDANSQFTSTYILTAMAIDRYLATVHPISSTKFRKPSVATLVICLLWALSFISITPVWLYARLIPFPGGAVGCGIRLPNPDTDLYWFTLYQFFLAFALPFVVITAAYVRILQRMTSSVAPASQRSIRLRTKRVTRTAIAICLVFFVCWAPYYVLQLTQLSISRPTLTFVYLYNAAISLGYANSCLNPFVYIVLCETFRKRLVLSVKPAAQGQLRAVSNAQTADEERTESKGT
Summary of the method: as §2

Human neurokinin (NK1) = biological target: T10, Human neurokinin (NK1) (Homo sapiens, UniProt P25103); experiment: Radioligand binding, human neurokinin NK1 membranes, filtration, [125I]-Substance P; conditions: compound at 10 μM; for A8 radioligand binding, percentage inhibition / A8: inhibition of radioligand binding: [125I]-Substance P
T10 construct: purchased Perkin Elmer Biosignal
T10 sequence (P25103 whole entry): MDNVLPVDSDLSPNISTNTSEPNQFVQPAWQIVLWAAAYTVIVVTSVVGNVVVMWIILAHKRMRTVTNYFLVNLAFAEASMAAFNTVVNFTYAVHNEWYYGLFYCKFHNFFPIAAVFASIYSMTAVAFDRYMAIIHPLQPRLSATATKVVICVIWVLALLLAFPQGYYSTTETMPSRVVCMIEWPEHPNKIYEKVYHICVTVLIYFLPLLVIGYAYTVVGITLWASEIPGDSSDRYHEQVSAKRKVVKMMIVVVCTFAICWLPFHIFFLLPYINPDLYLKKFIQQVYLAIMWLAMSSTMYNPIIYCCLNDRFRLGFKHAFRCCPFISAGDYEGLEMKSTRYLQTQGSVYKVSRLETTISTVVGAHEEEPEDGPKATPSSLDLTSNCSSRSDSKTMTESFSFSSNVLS
Summary of the method: as §1

Human δ-opioid (DOP) = biological target: T11, Human δ-opioid (DOP) (Homo sapiens, UniProt P41143); experiment: Radioligand binding, human δ-opioid (DOP) membranes, FlashPlate, [3H]-Bremazocine; conditions: compound at 10 μM; for A1 radioligand binding, percentage inhibition / A1: inhibition of radioligand binding: [3H]-Bremazocine
T11 construct: purchased Perkin Elmer Biosignal
T11 sequence (P41143 whole entry): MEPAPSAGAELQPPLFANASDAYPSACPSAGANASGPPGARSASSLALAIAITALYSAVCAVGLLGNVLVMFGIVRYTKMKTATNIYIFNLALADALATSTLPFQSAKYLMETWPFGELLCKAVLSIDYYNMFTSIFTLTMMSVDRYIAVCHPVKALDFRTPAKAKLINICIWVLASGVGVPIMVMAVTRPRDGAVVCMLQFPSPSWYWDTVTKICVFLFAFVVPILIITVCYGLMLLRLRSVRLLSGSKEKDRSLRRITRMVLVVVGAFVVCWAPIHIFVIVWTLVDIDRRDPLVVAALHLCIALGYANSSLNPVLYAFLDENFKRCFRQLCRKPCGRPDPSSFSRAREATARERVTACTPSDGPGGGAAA
Summary of the method: as §2

## COC[C@H]1OC(OCc2ccc(Cl)cc2)[C@H](NC(=O)CNC(=N)N)[C@@H](OCc2cccc(O)c2)[C@@H]1O (stereo partly shown) [compound 137]
Human κ-Opioid (KOP)
  A2 radioligand binding, percentage inhibition: − (“−” indicates less than 50% inhibition at 10 μM)
Human melanocortin (MC5)
  A5 radioligand binding, percentage inhibition: + (“+” indicates greater than 50% inhibition at 10 μM)
[1]
  A9 radioligand binding, percentage inhibition: − (“−” indicates less than 50% inhibition at 10 μM)
Mouse urotensin (mUR2)
  A11 radioligand binding, percentage inhibition: − (“−” indicates less than 50% inhibition at 10 μM)
Human opioid (ORL1)
  A10 radioligand binding, percentage inhibition: − (“−” indicates less than 50% inhibition at 10 μM)
Human Melanocortin (MC3)
  A3 radioligand binding, percentage inhibition: − (“−” indicates less than 50% inhibition at 10 μM)
Human μ-opioid (MOP)
  A7 radioligand binding, percentage inhibition: + (“+” indicates greater than 50% inhibition at 10 μM)
Human Melanocortin (MC4)
  A4 radioligand binding, percentage inhibition: − (“−” indicates less than 50% inhibition at 10 μM)
[2]
  A6 radioligand binding, percentage inhibition: − (“−” indicates less than 50% inhibition at 10 μM)
Human neurokinin (NK1)
  A8 radioligand binding, percentage inhibition: − (“−” indicates less than 50% inhibition at 10 μM)
Human δ-opioid (DOP)
  A1 radioligand binding, percentage inhibition: − (“−” indicates less than 50% inhibition at 10 μM)

## COCC1OC(OCc2ccc(Cl)cc2)C(NC(=O)CCN)C(OCc2ccccc2)C1O (stereo not shown) [compound 195]
Human κ-Opioid (KOP); filtration
  A2: inhibition of radioligand binding: − (“−” indicates less than 50% inhibition at 10 μM)
Human melanocortin (MC5); FlashPlate
  A5: inhibition of radioligand binding: − (“−” indicates less than 50% inhibition at 10 μM)
[1]; FlashPlate
  A9: inhibition of radioligand binding: − (“−” indicates less than 50% inhibition at 10 μM)
Mouse urotensin (mUR2); FlashPlate
  A11: inhibition of radioligand binding: − (“−” indicates less than 50% inhibition at 10 μM)
Human opioid (ORL1); FlashPlate
  A10: inhibition of radioligand binding: − (“−” indicates less than 50% inhibition at 10 μM)
Human Melanocortin (MC3); FlashPlate
  A3: inhibition of radioligand binding: − (“−” indicates less than 50% inhibition at 10 μM)
Human μ-opioid (MOP); FlashPlate
  A7: inhibition of radioligand binding: − (“−” indicates less than 50% inhibition at 10 μM)
Human Melanocortin (MC4); FlashPlate
  A4: inhibition of radioligand binding: − (“−” indicates less than 50% inhibition at 10 μM)
[2]; [125I]-S36057, FlashPlate
  A6: inhibition of radioligand binding: − (“−” indicates less than 50% inhibition at 10 μM)
Human neurokinin (NK1); filtration
  A8: inhibition of radioligand binding: + (“+” indicates greater than 50% inhibition at 10 μM)
Human δ-opioid (DOP); FlashPlate
  A1: inhibition of radioligand binding: − (“−” indicates less than 50% inhibition at 10 μM)

## COC[C@H]1OC(OCc2ccccc2)[C@H](NC(=O)CCCN)[C@@H](OCc2ccc3ccccc3c2)[C@@H]1O (stereo partly shown) [compound 26]
Human κ-Opioid (KOP); human κ-opioid (KOP) membranes
  A2 radioligand binding inhibition: − (“−” indicates less than 50% inhibition at 10 μM)
Human melanocortin (MC5); human melanocortin MC5 membranes
  A5 radioligand binding inhibition: − (“−” indicates less than 50% inhibition at 10 μM)
[1]; human NPY-Y1 membranes
  A9 radioligand binding inhibition: − (“−” indicates less than 50% inhibition at 10 μM)
Mouse urotensin (mUR2); mouse urotensin mUR2 membranes
  A11 radioligand binding inhibition: − (“−” indicates less than 50% inhibition at 10 μM)
Human opioid (ORL1); human ORL1 membranes
  A10 radioligand binding inhibition: − (“−” indicates less than 50% inhibition at 10 μM)
Human Melanocortin (MC3); human melanocortin MC3 membranes
  A3 radioligand binding inhibition: − (“−” indicates less than 50% inhibition at 10 μM)
Human μ-opioid (MOP); human μ-opioid (MOP) membranes
  A7 radioligand binding inhibition: − (“−” indicates less than 50% inhibition at 10 μM)
Human Melanocortin (MC4); human melanocortin MC4 membranes
  A4 radioligand binding inhibition: − (“−” indicates less than 50% inhibition at 10 μM)
[2]; human MCH1 membranes
  A6 radioligand binding inhibition: − (“−” indicates less than 50% inhibition at 10 μM)
Human neurokinin (NK1); human neurokinin NK1 membranes
  A8 radioligand binding inhibition: + (“+” indicates greater than 50% inhibition at 10 μM)
Human δ-opioid (DOP); human δ-opioid (DOP) membranes
  A1 radioligand binding inhibition: − (“−” indicates less than 50% inhibition at 10 μM)

## CO[C@H]1[C@H](O)[C@@H](COCc2ccc3ccccc3c2)OC(OCc2ccc(Cl)cc2)[C@@H]1NC(=O)CNC(=N)N (stereo partly shown) [compound 97]
Human κ-Opioid (KOP)
  A2 radioligand binding, percentage inhibition: − (“−” indicates less than 50% inhibition at 10 μM)
Human melanocortin (MC5)
  A5 radioligand binding, percentage inhibition: + (“+” indicates greater than 50% inhibition at 10 μM)
[1]
  A9 radioligand binding, percentage inhibition: − (“−” indicates less than 50% inhibition at 10 μM)
Mouse urotensin (mUR2)
  A11 radioligand binding, percentage inhibition: − (“−” indicates less than 50% inhibition at 10 μM)
Human opioid (ORL1)
  A10 radioligand binding, percentage inhibition: + (“+” indicates greater than 50% inhibition at 10 μM)
Human Melanocortin (MC3)
  A3 radioligand binding, percentage inhibition: + (“+” indicates greater than 50% inhibition at 10 μM)
Human μ-opioid (MOP)
  A7 radioligand binding, percentage inhibition: − (“−” indicates less than 50% inhibition at 10 μM)
Human Melanocortin (MC4)
  A4 radioligand binding, percentage inhibition: + (“+” indicates greater than 50% inhibition at 10 μM)
[2]
  A6 radioligand binding, percentage inhibition: − (“−” indicates less than 50% inhibition at 10 μM)
Human neurokinin (NK1)
  A8 radioligand binding, percentage inhibition: + (“+” indicates greater than 50% inhibition at 10 μM)
Human δ-opioid (DOP)
  A1 radioligand binding, percentage inhibition: − (“−” indicates less than 50% inhibition at 10 μM)

## NCCC(=O)NC1C(OCc2ccc(Cl)cc2)OC(COCc2ccc3ccccc3c2)C(O)C1OCc1ccc(Cl)cc1 (single isomer, unassigned) [compound 472]
Human κ-Opioid (KOP); human KOP membranes
  A2: inhibition of radioligand binding: − (“−” indicates less than 50% inhibition at 10 μM)
Human melanocortin (MC5); human MC5 membranes
  A5: inhibition of radioligand binding: + (“+” indicates greater than 50% inhibition at 10 μM)
[1]; human NPY-Y1 membranes
  A9: inhibition of radioligand binding: − (“−” indicates less than 50% inhibition at 10 μM)
Mouse urotensin (mUR2); mouse mUR2 membranes
  A11: inhibition of radioligand binding: − (“−” indicates less than 50% inhibition at 10 μM)
Human opioid (ORL1); human ORL1 membranes
  A10: inhibition of radioligand binding: − (“−” indicates less than 50% inhibition at 10 μM)
Human Melanocortin (MC3); human MC3 membranes
  A3: inhibition of radioligand binding: + (“+” indicates greater than 50% inhibition at 10 μM)
Human μ-opioid (MOP); human MOP membranes
  A7: inhibition of radioligand binding: − (“−” indicates less than 50% inhibition at 10 μM)
Human Melanocortin (MC4); human MC4 membranes, 10 µM
  A4: inhibition of radioligand binding: + (“+” indicates greater than 50% inhibition at 10 μM)
[2]; [125I]-S36057, human MCH1 membranes, 10 µM
  A6: inhibition of radioligand binding: + (“+” indicates greater than 50% inhibition at 10 μM)
Human neurokinin (NK1); human NK1 membranes
  A8: inhibition of radioligand binding: + (“+” indicates greater than 50% inhibition at 10 μM)
Human δ-opioid (DOP); human DOP membranes
  A1: inhibition of radioligand binding: − (“−” indicates less than 50% inhibition at 10 μM)
